# Reference: US20220314021A1, “METHOD FOR D[…] […] PHOTODYNAMIC THERAPY AND PHOTODYNAMIC THERAPY APPARATUS” (OTSUKA ELECTRONICS CO., LTD., priority 2019, published 2022)
# System: Jurkat cells derived from human T-cell leukemia
# Assay: cell killing assay by PDT in Jurkat cells (630 nm, Cell Counting Kit-8)
# Format: cell-based
# Settings: 5-ALA loading 0-1 mmol/L, light irradiation 30 J/cm^2, 630 nm
# Description: For Jurkat cells derived from human T-cell leukemia which is a disease classification different from that of the human adult T-cell leukemia/lymphoma clinically, amounts of protoporphyrin IX accumulated in the cells by 5-ALA loading (0, 0.0625, 0.125, 0.25, 0.5 and 1 mmol/L) were measured using the fluorescence detection high-performance liquid chromatography method, and then light irradiation (30 J/cm^2) with a central wavelength of 630 nm was further performed as the cell killing assay by PDT, and then cell viabilities (%) using the cell counting kit (Cell Counting Kit-8) were calculated.
smiles,measurement,value
"NCC(=O)CCC(=O)O [5-ALA, 5-aminolevulinic acid]",cell viabilities versus the regression curve of FIG. 3,located on the regression curve described in FIG. 3
